Marks after values point to notes of the source that are not given here.
Legend:
Assay type in all cases: in vivo, human
participants with NT1 [1] = assay: Nocturnal polysomnography (PSG) sleep architecture, Phase 2 NT1 trial
From the text: (§1) Polysomnography (PSG) was collected at baseline and after 27 and 54 days of treatment. Sleep was manually scored following AASM guidelines; sleep metrics were extracted then computed by whole night and by quarter-night. Continuous accelerometry (Empatica EmbracePlus watch) allowed assessment of sleep in a naturalistic manner at home. Daily sleep diaries were used to capture subjective reports. Mixed effects models were fit with treatment, quarter-night, visit, and their interactions as fixed effects and random intercepts per subject. A reference PSG dataset (Vilela M, et al. J Sleep Res 2024; e14216) from CHU Montpellier (49 clinical controls and 114 patients with NT1, all drug-free) was analyzed to establish DNS characteristics of NT1.

participants with NT2 = assay: ESS total score, Phase 2 NT2 trial; details: not statistically significant (p>0.05)
From the text: In some aspects of the methods described herein, the subject experiences a lower Epworth Sleepiness Scale (ESS) total score after a treatment period compared to an untreated subject. The ESS is a subjective, self-administered scale that has been validated and used extensively as a key endpoint in studies in patients with narcolepsy to measure excessive daytime sleepiness (EDS). The ESS provides individuals with 8 different situations of daily life and asks them how likely they are to fall asleep in those situations (scored 0 to 3) and to try to imagine their likelihood of dozing even if they have not actually been in the identical situation; the scores are summed to give an overall score of 0 to 24. Higher scores indicate stronger subjective daytime sleepiness, and scores below 10 are considered to be within the reference range.
Randomization was stratified by region. Starting on the morning of Day 1, the study drug was administered at approximately the same time each day for 8 weeks.
In this study, the interventions includes: • Dose Regimen 1:2 mg followed by 2 mg approximately 3 hours apart. • Dose Regimen 2:2 mg followed by 5 mg approximately 3 hours apart or 7 mg once daily. • Other products required for the study: placebo.
Eligible participants were age 18-70 years, with Epworth Sleepiness Scale (ESS) score>12 and no other current EDS-related medical conditions. […]

participants with NT1 [2] = assay: At-home continuous accelerometry of sleep, Phase 2 NT1 trial
From the text: as §1
Consistent with sleep diaries, adverse events of mild to moderate insomnia were reported by 48% of Compound A-treated participants and most resolved within 1 week. […] Conclusion: Treatment with Compound A may help normalize REM architecture and reduce disturbing dreams without changing WASO or deep sleep.

participants with NT1 [3] = assay: Narcolepsy Severity Scale for Clinical Trials (NSS-CT), Phase 2 NT1 trial
From the text: Severity of NT1 symptoms can be assessed through the use of the NSS-CT. The NSS-CT is a 15-item self-administered questionnaire (total score: 0-57) that assesses the severity and consequences of the 5 major narcolepsy symptoms such as daytime sleepiness, cataplexy, hallucinations, sleep paralysis, and disrupted nighttime sleep (DNS). […] Further, the symptom number was associated with diagnosis delay, age at onset, and ESS and Beck Depression Inventory scores (Dauvilliers et al. 2020).
Methods: An analysis of exploratory data from the study was conducted to explore disease severity in individuals with ICSD-3 confirmed NT1. Eligible participants were age 18-70 years (Japan: 16-70), with an Epworth Sleepiness Scale (ESS) score>12, and >4 partial/complete episodes of cataplexy/week. Exploratory endpoints included change from baseline to Week 8 in the narcolepsy Severity Scale for clinical trials (NSS-CT), and Clinical Global Impression (CGI) and Patient Global Impression (PGI) at Week 8. The NSS-CT, a validated, self-administered 15-item scale, evaluates the severity, frequency, and impact of five main narcolepsy symptoms (higher scores indicate more severe symptoms).

## CCS(=O)(=O)N[C@@H]1[C@H](Cc2cccc(-c3cc(F)cc(F)c3)c2F)N(C(=O)C(C)(C)O)CC1(F)F [Compound A, N-{(2S,3R)-4,4-difluoro-1-(2-hydroxy-2-methylpropanoyl)-2-[(2,3′,5′-trifluoro[1,1′-biphenyl]-3-yl)methyl]pyrrolidin-3-yl}ethanesulfonamide]
Participants with NT1 [1]; 7 mg QD
  PSG % of time in N1, change from baseline to week 8: 2.90* %
  PSG % of time in N2, change from baseline to week 8: −6.10* %
  PSG % of time in N3, change from baseline to week 8: −0.12%
  PSG % of time in REM, change from baseline to week 8: −4.48* %
  PSG % of time in WASO, change from baseline to week 8: 7.81* %
  PSG No. of awakenings, change from baseline to week 8: 6.3*
  PSG SOL, change from baseline to week 8: -6.8 min
  PSG TST, change from baseline to week 8: −42.7* min
  PSG WASO, change from baseline to week 8: 38.1* min
Participants with NT1 [1]; 0.5/0.5 mg
  PSG % of time in N1, change from baseline to week 8: 1.13%
  PSG % of time in N2, change from baseline to week 8: −1.75%
  PSG % of time in N3, change from baseline to week 8: −0.27%
  PSG % of time in REM, change from baseline to week 8: 1.28%
  PSG % of time in WASO, change from baseline to week 8: −0.39%
  PSG No. of awakenings, change from baseline to week 8: −2.3
  PSG SOL, change from baseline to week 8: 0.4 min
  PSG TST, change from baseline to week 8: -5.4 min
  PSG WASO, change from baseline to week 8: -3.6 min
Participants with NT1 [1]; 2/2 mg
  PSG % of time in N1, change from baseline to week 8: 1.76%
  PSG % of time in N2, change from baseline to week 8: 0.65%
  PSG % of time in N3, change from baseline to week 8: 0.45%
  PSG % of time in REM, change from baseline to week 8: −2.43%
  PSG % of time in WASO, change from baseline to week 8: −0.43%
  PSG No. of awakenings, change from baseline to week 8: 2.5
  PSG SOL, change from baseline to week 8: -1.9 min
  PSG TST, change from baseline to week 8: 8.4 min
  PSG WASO, change from baseline to week 8: -2.4 min
Participants with NT1 [1]; 2/5 mg
  PSG % of time in N1, change from baseline to week 8: 3.55* %
  PSG % of time in N2, change from baseline to week 8: −1.69%
  PSG % of time in N3, change from baseline to week 8: −0.44%
  PSG % of time in REM, change from baseline to week 8: −4.08* %
  PSG % of time in WASO, change from baseline to week 8: 2.57%
  PSG No. of awakenings, change from baseline to week 8: 3.2
  PSG SOL, change from baseline to week 8: -3.4 min
  PSG TST, change from baseline to week 8: -19.9 min
  PSG WASO, change from baseline to week 8: 11.0 min
Participants with NT1 [1]; week 8 (FIG. 6A)
  REM sleep architecture per quarter night (in-clinic PSG): shifted REM sleep from early to later in the night without reducing the total REM
Participants with NT1 [1]; week 8, except in the 0.5 mg/0.5 mg cohort (FIG. 6B)
  Rate of transitions between REM and wake/N1: reduced the rate of sleep/wake transitions early in the night
Participants with NT2; 2 mg/2 mg
  ESS total score change from baseline to Week 8 versus placebo: −0.32 points
Participants with NT2; 2/5 mg
  ESS total score change from baseline to Week 8 versus placebo: −3.06 points
Participants with NT1 [2]; 2 mg/2 mg cohort (FIG. 7)
  Number of nocturnal awakenings, awakenings >5 min and longest sleep bout (accelerometry): small but statistically significant reductions
Participants with NT1 [2]; accelerometry, overall (FIG. 7)
  At-home nighttime TST and WASO, change from baseline: minimal changes overall
Participants with NT1 [2]; week 1 only, 2 mg/5 mg and 7 mg QD cohorts, resolving over time
  At-home TST: reduced TST was observed
Participants with NT1 [3]; 0.5 mg/0.5 mg
  NSS-CT total score, LS mean change from baseline to Week 8: −18.2
Participants with NT1 [3]; 2 mg/2 mg
  NSS-CT total score, LS mean change from baseline to Week 8: −21.0
Participants with NT1 [3]; 2 mg/5 mg
  NSS-CT total score, LS mean change from baseline to Week 8: −21.1
Participants with NT1 [3]; 7 mg
  NSS-CT total score, LS mean change from baseline to Week 8: −17.2
